Assay results taken from US20240252457A1, “Treatment or Prevention of Ischaemia Reperfusion Injury” (Cambridge Enterprise Limited, priority 2021, published 2024).
Entries after “also recorded” stand apart in the source; their conditions may differ.

Assays:
C2C12 cells = assay: Malonate / 3A3OPA uptake in C2C12 cells at different pH (LC-MS/MS); format: cell-based, mouse; conditions: for intracellular uptake, effect of lowered pH: 15 min, pH 6 vs 7.4 (and 8)
Protocol: C2C12 cells were incubated with malonate at pH 8, 7.4 or 6 and the levels within cells measured by LC-MS/MS (mean±/−S.E.M., n=4).
C2C12 cells were treated with either malonate or 3-amino-3-oxypropanoic acid at pH 7.4 or 6 and their intracellular levels measured by LC-MS/MS (mean±/−S.E.M., n=6).

[1] = tested on: murine Langendorff perfused heart; assay: Malonate uptake in Langendorff-perfused hearts (pH- and ischaemia-dependence, LC-MS/MS)
Protocol: Malonate (5 mM) was infused into Langendorff perfused mouse hearts at either pH 7.4 or 6. The heart flushed to remove vessel malonate and malonate levels measured by LC-MS/MS (mean±/−S.E.M., n=4).
Langendorff mouse hearts were reperfused with malonate (5 mM) after either 0, 5, 10, or 20 min ischaemia). The heart flushed to remove vessel malonate and malonate levels measured by LC-MS/MS (mean±/−S.E.M., n=4-5).

Langendorff heart = assay: Lactate levels in the Langendorff heart after 20 min ischemia and 1 min reperfusion; conditions: 5 mM DSM, 20 min ischemia
Text: Compared to reperfusion alone, lactate levels decreased in the malonate-treated hearts.

murine LAD MI model = assay: Infarct size in murine LAD MI model (TTC staining); format: in vivo
Protocol: Mice were subjected to left anterior descending coronary artery ligation heart attack model (30 min ischaemia, 2 hr reperfusion) and malonate infused either before the onset of ischaemia or during initial reperfusion. Infarct size was determined by staining the heart with triphenyltetrazolium chloride (mean±/−S.E.M., n=5-8).
Thus, malonate was confirmed to be cardioprotective when administered at the point of reperfusion after ischaemia.
Cyclosporin A is a known inhibitor of the mitochondrial permeability transition pore (PTP).

H9c2 myoblasts = assay: Intracellular malonate and succinate in H9c2 myoblasts at different pH (LC-MS/MS); format: cell-based; conditions: H9c2, DSM 1 or 5 mM, 15 min
MCAO model = assay: Transient middle cerebral artery occlusion (MCAO) stroke model; format: in vivo, mice; conditions: i.v. for 20 min starting just prior to reperfusion; 45 min ischaemia, 2 h reperfusion
Text: Male C57B16J mice, 6-8 weeks old, were anesthetized with 3% isoflurane and anaesthesia was maintained on 1.5-2% isoflurane. A Doppler flowmetry probe (Perimed, Sweden) was attached to the skull to continuously monitor the cerebral blood flow. Left common carotid artery (CCA) and left external carotid artery were exposed and permanently ligated. Left internal common carotid artery was clamped temporarily. Next, an incision was made on CCA and a filament with a silicon tip (0.22 mm in diameter, 2-3 mm in length, Doccol, USA) was inserted and guided forward into internal carotid artery until it reached middle cerebral artery (MCA). The occlusion of MCA was confirmed by seeing at least 70% drop in cerebral blood flow. […]
At the end of reperfusion, mice were sacrificed by cervical dislocation; brain was collected and sliced at 2 mm thicknesses and stained with 2% triphenyltetrazolium chloride in saline at 37 C for 10-15 min. […] The healthy tissue area (red-stained) in both hemispheres was measured using ImageJ. The infarct volume % was calculated by first calculating the volume of healthy tissue in each hemisphere (Σ area of each slice×thickness of slice), then by the formula: ((volume of healthy tissue in uninjured hemisphere−volume of healthy tissue in injured hemisphere)÷volume of healthy tissue in uninjured hemisphere)×100.

[2] = tested on: C2C12 mouse myoblast cells; assay: Malonate uptake in vitro in C2C12 cells (dose and time course); format: cell-based; conditions: for malonate uptake into cells (words): 0.25, 1 or 5 mM, 0 to 240 min; for intracellular malonate concentration: 5 min, cell volume 260 mg protein/ml
Protocol: We first explored whether malonate could be taken up by cells in culture. C2C12 mouse myoblast cells were plated at 300,000 cells/well and adhered overnight. […] Cells were extracted for mass spectrometry with 500 μl extraction buffer (50% methanol, 30% acetonitrile and 20% water) with 1 nmol ^13C-malonate internal standard centrifuged to remove insoluble debris.

[3] = Malonate uptake in vivo, tissue levels after tail vein bolus; set-up: species or system mouse; conditions: 160 mg/kg tail vein bolus, 5 min
Protocol: For tissue analysis, tissues were weighed and extracted in 25 μl/mg extraction buffer containing internal standard and homogenised in a Precellys 24 homogeniser. Homogenates were centrifuged to remove insoluble debris. Extracts were analysed by LC-MS/MS and the levels of malonate assessed by interpolation of a malonate standard curve.

pKa and ionisation state = format: physicochemical; conditions: pH 6.4
Text: In 3A3OPA, one carboxylic acid has been replaced with a neutral amido group leaving a single carboxylic acid of pKa˜4.75. Thus, at pH 7.4 3A3OPA resembles the monocarboxylate form of malonate.

[4] = cited from earlier work
MCT1 = target: T1, MCT1 (Mus musculus, UniProt P53986); assay: Malonate levels in Langendorff hearts perfused at pH 6 with DSM ± lactate or MCT1 inhibitor; set-up: species or system murine; conditions: pH 6, 5 min, 5 mM DSM; lactate 50 mM, AR-C141990 10 μM
T1 construct: from tissue; host or cells: isolated Langendorff-perfused murine heart
T1 sequence (P53986 1-493): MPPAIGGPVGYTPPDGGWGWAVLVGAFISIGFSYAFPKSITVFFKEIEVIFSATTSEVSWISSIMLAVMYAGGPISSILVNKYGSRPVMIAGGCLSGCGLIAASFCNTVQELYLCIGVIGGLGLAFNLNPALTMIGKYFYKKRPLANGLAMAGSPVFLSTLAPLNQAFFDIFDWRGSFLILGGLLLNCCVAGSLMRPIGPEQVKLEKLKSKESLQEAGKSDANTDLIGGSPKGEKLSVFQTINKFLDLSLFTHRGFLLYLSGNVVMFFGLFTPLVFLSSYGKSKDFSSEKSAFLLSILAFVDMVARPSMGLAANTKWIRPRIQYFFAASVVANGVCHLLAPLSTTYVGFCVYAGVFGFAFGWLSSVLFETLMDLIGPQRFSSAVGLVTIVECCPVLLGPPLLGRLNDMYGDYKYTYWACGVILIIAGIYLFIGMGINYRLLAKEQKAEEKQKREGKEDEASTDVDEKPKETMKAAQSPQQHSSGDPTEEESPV
T1 sequence (P18572 140-389 partner limits assumed): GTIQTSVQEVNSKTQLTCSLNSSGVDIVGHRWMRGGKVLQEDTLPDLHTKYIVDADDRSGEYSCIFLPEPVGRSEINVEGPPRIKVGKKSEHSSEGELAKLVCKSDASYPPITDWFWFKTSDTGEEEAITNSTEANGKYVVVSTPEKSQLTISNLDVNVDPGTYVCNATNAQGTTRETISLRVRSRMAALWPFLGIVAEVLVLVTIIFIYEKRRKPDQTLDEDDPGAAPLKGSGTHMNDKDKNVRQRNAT
Text: Malonate uptake into the Langendorff perfused heart was blocked by the MCT1 inhibitor AR-C141990, in the perfusion medium, and by excess lactate.

[5] = cited from earlier work; remark: listed apart in the source

Q: With `O=C([O-])CC(=O)[O-].[Na+].[Na+]` [DSM, disodium malonate] as the compound, how does the “intracellular uptake, effect of lowered pH” value (C2C12 cells) read?
A: Its value is “greatly enhanced”.

Q: And the “malonate uptake in heart after ischaemia” value ([1]; 0, 5, 10 or 20 min ischaemia, reperfused with 5 mM DSM pH 7.4)?
A: The value was “ischemic time-dependent uptake”.

Q: What about the “malonate uptake in heart, infused at low pH vs neutral pH” value ([1]; 5 mM DSM, pH 6 vs pH 7.4) of the same compound?
A: Its value is “greatly enhanced”.

Q: What about the “lactate levels compared to reperfusion alone” value (Langendorff heart) of the same compound?
A: The value was “decreased”.

Q: And the “infarct size (cardioprotection)” value (murine LAD MI model; 160 mg/kg infusion at reperfusion)?
A: Its value is “cardioprotective”.

Q: What about the “infarct size, cardioprotection in combination with cyclosporin A” value (murine LAD MI model; DSM 160 mg/kg with cyclosporin A 10 mg/kg at reperfusion) of the same compound?
A: Its value is “additive to cyclosporin A alone”.

Q: And the “levels of malonate in the cell at pH 6 vs pH 7.4 or 8” value (H9c2 myoblasts)?
A: The value was “significantly higher”.

Q: What about the “succinate levels (malonate-dependent SDH inhibition) at low pH” value (H9c2 myoblasts) of the same compound?
A: Its value is “greater succinate accumulation”.

Q: What about the “necrotic brain infarct volume” value (MCAO model) of the same compound?
A: The value was “decreased”.

Q: And the intracellular malonate levels ([2]; 5 mM DSM, after 5 min)?
A: The intracellular malonate levels was ~2 nmol/mg protein.

Q: What about the “malonate uptake into cells (words)” value ([2]; listed as Malonate) of the same compound?
A: Its value is “both dose and time-dependent”.

Q: And the “malonate uptake into cells (words)” value ([2]; listed as disodium malonate)?
A: The value was “rapid malonate uptake”.

Q: What about the intracellular malonate concentration ([2]; 250 μM malonate) of the same compound?
A: The intracellular malonate concentration was “about 50 μM”.

Q: What about the intracellular malonate concentration ([2]; 5 mM malonate) of the same compound?
A: The intracellular malonate concentration was ~500 µM.

Q: And the intracellular malonate levels ([2]; incubated with 250 μM disodium malonate)?
A: The intracellular malonate levels was 0.2-0.4 nmol/mg protein.

Q: What about the “tissue levels of malonate, brain” value [3] of the same compound?
A: Its value is “uptake in the brain”.

Q: And the “tissue levels of malonate, heart” value [3]?
A: Its value is “significant amounts”.

Q: And the “tissue levels of malonate, kidney” value [3]?
A: The value was “particularly high”.

Q: What about the “tissue levels of malonate, liver” value [3] of the same compound?
A: The value was “significant amounts”.

Q: And the “fraction in monocarboxylate form” value (pKa and ionisation state)?
A: The value was “approximately 16%”.

Q: And the “protection against myocardial IR injury” value ([4]; small animal ex vivo and large animal models)?
A: Its value is “protective”.

Q: Which “effect on malonate uptake into the Langendorff perfused heart” value (MCT1) does the source give for `CC(C)Cn1c(=O)n(C)c(=O)c2c(C(=O)N3CC[C@@H](O)C3)c(Cc3ccnc4ccccc34)sc21` [AR-C141990] here?
A: Its value is “blocked”.

Q: With `COC(=O)CC(=O)OC` [DMM, dimethyl malonate] as the compound, how does the “necrotic brain infarct volume” value (MCAO model) read?
A: Its value is “not to be protective; also recorded: no significant difference”.

Q: And the “protection against IR injury” value ([4]; administered prior to and throughout ischaemia (WO 2016/001686))?
A: The value was “protective”.

Q: For `CC(O)C(=O)O` (stereo not shown) [lactate], which “effect on malonate uptake into the Langendorff perfused heart” value (MCT1) is on record?
A: The value was “blocked”.

Q: Which “uptake into cells at pH 7.4 compared with malonate” value (C2C12 cells; 5 mM, pH 7.4) does the source give for `NC(=O)CC(=O)O` [3A3OPA, 3-amino-3-oxypropanoic acid] here?
A: Its value is “more 3A3OPA being taken up into cells at pH 7.4 than malonate”.

Q: What about the “intracellular uptake, effect of lowered pH” value (C2C12 cells) of the same compound?
A: Its value is “changed negligibly”.

Q: And the “pKa of single carboxylic acid” value [5]?
A: The value was ~4.75.
